{"source": "patent US12285012B2", "about": "“Compositions comprising pyridine carboxylate herbicides with acetolactate synthase (ALS) inhibitor herbicides” (Corteva Agriscience LLC, priority 2018, dated 2025)", "settings_in_all_cases": "Pyribenzoxim 10 g/ha", "key": {"[1]": {"system": "Canadian thistle (CIRAR, Cirsium arvense)", "assay": "Greenhouse postemergence herbicidal effect", "type": "in vivo", "protocol": "(§1) The plants were grown for 7-36 days (d) in a greenhouse with an approximate 14-hour (h) photo-period which was maintained at about 23° C. during the day and 22° C. during the night. Nutrients and water were added on a regular basis and supplemental lighting was provided with overhead metal halide 1000-Watt lamps as necessary. The plants were employed for testing when they reached the second or third true leaf stage.\n(§2) The emulsifiable concentrates also included a safener, cloquintocet-mexyl, at 120 grams active ingredient per liter (g ai/L), unless otherwise noted below.\n(§3) Control plants were sprayed in the same manner with the solvent blank. All pyridine carboxylate herbicide (component a) application rates are given as “g ae/ha” and all ALS inhibitor (component b) application rates are given as “g ai/ha.”\n(§4) The treated plants and control plants were placed in a greenhouse as described above and watered by sub-irrigation to prevent wash-off of the test compounds. After 20-22 d, the condition of the test plants as compared with that of the control plants was determined visually and scored on a scale of 0 to 100 percent where 0 corresponds to no injury and 100 corresponds to complete kill."}, "[2]": {"system": "spring rape (BRSNN, Brassica napus)", "assay": "Greenhouse postemergence herbicidal effect", "type": "in vivo", "protocol": "as §1, §2, §3, §4"}, "[3]": {"system": "nutsedge (CYPES, Cyperus esculentus)", "assay": "Greenhouse postemergence herbicidal effect", "type": "in vivo", "excerpt": "(§5) Seeds of the desired test plant species were planted in a 90:10% v/v (volume/volume) mixture of PRO-MIX® BX (Premier Tech Horticulture, Quakertown, PA, USA) and PROFILE® GREENS GRADE™ (Profile Products LLC, Buffalo Grove, IL, USA) planting mixture, which typically has a pH of 5.2 to 6.2 and an organic matter content of at least 50 percent, in plastic pots with a surface area of 103.2 square centimeters (cm^2). In some aspects, to ensure good germination and healthy plants, a fungicide treatment and/or other chemical or physical treatment was applied. The plants were grown for 7-36 days (d) in a greenhouse with an approximate 14-hour (h) photo-period which was maintained at about 23° C. during the day and 22° C. during the night. Nutrients and water were added on a regular basis and supplemental lighting was provided with overhead metal halide 1000-Watt lamps as necessary. The plants were employed for testing when they reached the second or third true leaf stage.\n(§6) Emulsifiable concentrates of each of each pyridine carboxylate herbicide (Compound A or Compound B) were prepared at 100 grams acid equivalent per liter (g ae/L). The emulsifiable concentrates also included a safener, cloquintocet-mexyl, at 120 grams active ingredient per liter (g ai/L), unless otherwise noted below. An aliquot of each emulsifiable concentrate was placed in a 25 mL glass vial and diluted with an aqueous mixture of 1.25% (v/v) ACTIROB® B esterified rapeseed oil (Bayer Crop Science, Research Triangle Park, NC, USA) or MSO® Concentrate with LECI-TECH® methylated soybean oil (Loveland Products, Loveland, CO, USA) to obtain concentrated stock solutions at the highest application rate for each herbicide, based upon a 12 milliliter (mL) application volume at a rate of 187 liters per hectare (L/ha). The concentrated stock solutions were further diluted with an aqueous mixture of 1.25% v/v ACTIROB® B or MSO® Concentrate with LECI-TECH® to obtain stock solutions at reduced application rates for each herbicide. Spray solutions of the herbicide combinations (Compound A or Compound B plus ALS herbicide) were prepared by adding weighed amounts or aliquots of the ALS herbicides to the stock solutions of Compound A or Compound B to form 12-mL spray solutions in two- or three-way combinations.\n(§7) The spray solutions were applied to the plant material with an overhead Mandel track sprayer equipped with 8002E nozzles calibrated to deliver 187 L/ha over an application area of 0.503 square meters (m^2) at a spray height of 18 inches (43 centimeters (cm)) above the average plant canopy. Control plants were sprayed in the same manner with the solvent blank. All pyridine carboxylate herbicide (component a) application rates are given as “g ae/ha” and all ALS inhibitor (component b) application rates are given as “g ai/ha.”\nas §4"}, "[4]": {"system": "poinsettia (EPHHL, Euphorbia heterophylla)", "assay": "Greenhouse postemergence herbicidal effect", "type": "in vivo", "excerpt": "as §5, §6, §7, §4"}, "[5]": {"system": "ivyleaf morningglory (IPOHE, Ipomoea hederacea)", "assay": "Greenhouse postemergence herbicidal effect", "type": "in vivo", "excerpt": "as §5, §6, §7, §4"}, "[6]": {"system": "grain sorghum (SORVU, Sorghum vulgare)", "assay": "Greenhouse postemergence herbicidal effect", "type": "in vivo", "excerpt": "as §5, §6, §7, §4"}, "[7]": {"system": "common sunflower (HELAN, Helianthus annuus)", "assay": "Greenhouse postemergence herbicidal effect", "type": "in vivo", "excerpt": "as §5, §6, §7, §4"}, "spring wheat (TRZAS)": {"system": "spring wheat (TRZAS)", "type": "in vivo, Triticum aestivum", "protocol": "as §1, §2, §3, §4"}}, "data": [{"smiles": "COc1cc(OC)nc(Oc2cccc(Oc3nc(OC)cc(OC)n3)c2C(=O)ON=C(c2ccccc2)c2ccccc2)n1", "note": "[Pyribenzoxim, pyribenzoxim]", "values": [{"measurement": "% visual injury", "setting": "[1]", "value": 90, "unit": "%"}, {"measurement": "% visual injury", "setting": "[2]", "value": 90, "unit": "%"}, {"measurement": "% visual injury", "setting": "[3]", "value": 0, "unit": "%"}, {"measurement": "% visual injury", "setting": "[4]", "value": 100, "unit": "%"}, {"measurement": "% visual injury", "setting": "[5]", "value": 78, "unit": "%"}, {"measurement": "% visual injury", "setting": "[6]", "value": 73, "unit": "%"}, {"measurement": "% visual injury", "setting": "[7]", "value": 98, "unit": "%"}, {"measurement": "% visual injury", "setting": "spring wheat (TRZAS)", "value": 13, "unit": "%"}]}]}
